# From patent US11319299B2, “Substituted carboxamides as inhibitors of WDR5 protein-protein binding” (PROPELLON THERAPEUTICS INC., priority 2016, dated 2022)
# Biological target: WDR5 (Homo sapiens (Human), UniProt P61964)
# Experiment: Surface Plasmon Resonance (SPR) assay, KD and residence time
# Type: binding
# Conditions: surface plasmon resonance (SPR) assay; read-out: WDR5 binding affinity (KD)
row,Kd,Compound
1,1.24 nM,"C[C@@H]1CN(c2cc(F)c(C3=CCN(C(=O)OC(C)(C)C)CC3)cc2NC(=O)c2c[nH]c(=O)cc2C(F)(F)F)C[C@H](C)N1C [Example 143, tert-butyl 4-[2-fluoro-5-[[6-oxo-4-(trifluoromethyl)-1H-pyridine-3-carbonyl]amino]-4-[(3R,5S)-3,4,5-trimethylpiperazin-1-yl]phenyl]-3,6-dihydro-2H-pyridine-1-carboxylate]"
2,35.4 nM,"C[C@@H]1CN(c2cc(F)c(-c3cncc(C(F)(F)F)c3)cc2NC(=O)c2cn(C)c(=O)cc2C(F)(F)F)C[C@H](C)N1C [Example 180, N-[4-fluoro-2-[(3R,5S)-3,4,5-trimethylpiperazin-1-yl]-5-[5-(trifluoromethyl)pyridin-3-yl]phenyl]-1-methyl-6-oxo-4-(trifluoromethyl)pyridine-3-carboxamide]"
3,4.05 nM,"C[C@@H]1CN(c2cc(F)c(C3=CCNC3)cc2NC(=O)c2c[nH]c(=O)cc2C(F)(F)F)C[C@H](C)N1C [Example 329, N-[5-(2,5-dihydro-1H-pyrrol-3-yl)-4-fluoro-2-[(3R,5S)-3,4,5-trimethylpiperazin-1-yl]phenyl]-6-oxo-4-(trifluoromethyl)-1H-pyridine-3-carboxamide]"
4,9.7 nM,"CC1CN(c2cc(F)c(-c3cnc(N4CCOCC4)nc3)cc2NC(=O)c2cc(Cl)cc(Cl)c2)CCN1C (stereo in doubt) [Example 200, 3,5-dichloro-N-[4-fluoro-5-(2-morpholin-4-ylpyrimidin-5-yl)-2-[(3R)-3,4-dimethylpiperazin-1-yl]phenyl]benzamide]"
5,10.7 nM,"C[C@@H]1CN(c2cc(F)c(C3=CCN(C)CC3)cc2NC(=O)c2c[nH]c(=O)cc2C(F)(F)F)C[C@H](C)N1C [Example 267, N-[4-fluoro-5-(1-methyl-3,6-dihydro-2H-pyridin-4-yl)-2-[(3R,5S)-3,4,5-trimethylpiperazin-1-yl]phenyl]-6-oxo-4-(trifluoromethyl)-1H-pyridine-3-carboxamide]"
6,40.2 nM,"C[C@@H]1CN(c2cc(F)c(-c3cnc(N4CCOCC4)nc3)cc2NC(=O)c2cccc(C(F)(F)F)c2)C[C@H](C)N1C [Example 186, N-[4-fluoro-5-(2-morpholin-4-ylpyrimidin-5-yl)-2-[(3R,5S)-3,4,5-trimethylpiperazin-1-yl]phenyl]-3-(trifluoromethyl)benzamide]"
7,9.53 nM,"COCCOc1ccc(-c2cc(NC(=O)c3cn(C)c(=O)cc3C(F)(F)F)c(N3C[C@@H](C)N(C)[C@@H](C)C3)cc2F)cn1 [Example 209, N-(4-fluoro-5-(6-(2-methoxyethoxy)pyridin-3-yl)-2-((3S,5R)-3,4,5-trimethylpiperazin-1-yl)phenyl)-1-methyl-6-oxo-4-(trifluoromethyl)-1,6-dihydropyridine-3-carboxamide]"

# Same assay, conditions: surface plasmon resonance (SPR); read-out: WDR5 binding affinity (KD)
row,Kd,Compound
1,10.9 nM,"CC1CN(c2cc(F)c(-c3cnn(CCN4CCOCC4)c3)cc2NC(=O)c2cn(C)c(=O)cc2C(F)F)CCN1C (stereo in doubt) [Example 715, 4-(difluoromethyl)-N-[4-fluoro-5-[1-(2-morpholin-4-ylethyl)pyrazol-4-yl]-2-[(3R)-3,4-dimethylpiperazin-1-yl]phenyl]-1-methyl-6-oxopyridine-3-carboxamide]"
2,0.108 nM,"C[C@@H]1CN(c2cc(F)c(C3=CCCN(c4ncc(CN5CCN(C)CC5)cn4)C3)cc2NC(=O)c2c[nH]c(=O)cc2C(F)(F)F)C[C@H](C)N1C [Example 416, N-[4-fluoro-5-[1-[5-[(4-methylpiperazin-1-yl)methyl]pyrimidin-2-yl]-3,6-dihydro-2H-pyridin-5-yl]-2-[(3R,5S)-3,4,5-trimethylpiperazin-1-yl]phenyl]-6-oxo-4-(trifluoromethyl)-1H-pyridine-3-carboxamide]"
3,2.22 nM,"C[C@H]1CN(c2cc(F)c(C3=CCN(C(=O)N4CCCC4)C3)cc2NC(=O)c2c[nH]c(=O)cc2C(F)F)CCN1C [Example 629, (S)-4-(Sifluoromethyl)-N-(2-(3,4-dimethylpiperazin-1-yl)-4-fluoro-5-(1-(pyrrolidine-1-carbonyl)-2,5-dihydro-1H-pyrrol-3-yl)phenyl)-6-oxo-1,6-dihydropyridine-3-carboxamide]"
4,23.5 nM,"O=C(Nc1cc(-c2cnc(N3CCOCC3)nc2)c(F)cc1N1CCN(C2CC2)CC1)c1c[nH]c(=O)cc1C(F)(F)F [Example 561, N-[2-(4-cyclopropylpiperazin-1-yl)-4-fluoro-5-(2-morpholin-4-ylpyrimidin-5-yl)phenyl]-6-oxo-4-(trifluoromethyl)-1H-pyridine-3-carboxamide]"
5,11.4 nM,"C[C@@H]1CN(c2cc(F)c(-c3cc(C(N)=O)c(F)cc3F)cc2NC(=O)c2c[nH]c(=O)cc2C(F)(F)F)C[C@H](C)N1C [Example 632, N-[5-(5-carbamoyl-2,4-difluorophenyl)-4-fluoro-2-[(3R,5S)-3,4,5-trimethylpiperazin-1-yl]phenyl]-6-oxo-4-(trifluoromethyl)-1H-pyridine-3-carboxamide]"
6,3.44 nM,"C[C@@H]1CN(c2cc(F)c(-c3ncc(C(=O)N4CCN(C)CC4)s3)cc2NC(=O)c2c[nH]c(=O)cc2C(F)(F)F)C[C@H](C)N1C [Example 501, N-[4-fluoro-5-[5-(4-methylpiperazine-1-carbonyl)-1,3-thiazol-2-yl]-2-[(3R,5S)-3,4,5-trimethylpiperazin-1-yl]phenyl]-6-oxo-4-(trifluoromethyl)-1H-pyridine-3-carboxamide]"
7,1.02 nM,"C[C@@H]1CN(c2ncc(-c3cc(NC(=O)c4cn(C)c(=O)cc4C(F)(F)F)c(N4CCN(C)[C@H](C)C4)cc3F)cn2)CCO1 (stereo in doubt) [Example 450, N-[4-fluoro-2-[(3R)-3,4-dimethylpiperazin-1-yl]-5-[2-[(2R)-2-methylmorpholin-4-yl]pyrimidin-5-yl]phenyl]-1-methyl-6-oxo-4-(trifluoromethyl)pyridine-3-carboxamide]"
8,0.72 nM,"C[C@@H]1CN(c2cc(F)c(C3=CCN(c4ccnc(C#N)n4)CC3)cc2NC(=O)c2c[nH]c(=O)cc2C(F)(F)F)C[C@H](C)N1C [Example 709, N-[5-[1-(2-cyanopyrimidin-4-yl)-3,6-dihydro-2H-pyridin-4-yl]-4-fluoro-2-[(3R,5S)-3,4,5-trimethylpiperazin-1-yl]phenyl]-6-oxo-4-(trifluoromethyl)-1H-pyridine-3-carboxamide]"
9,1.71 nM,"CNC(=O)c1cc(-c2cc(NC(=O)c3c[nH]c(=O)cc3C(F)(F)F)c(N3C[C@@H](C)N(C)[C@@H](C)C3)cc2F)ccc1F [Example 604, N-[4-fluoro-5-[4-fluoro-3-(methylcarbamoyl)phenyl]-2-[(3R,5S)-3,4,5-trimethylpiperazin-1-yl]phenyl]-6-oxo-4-(trifluoromethyl)-1H-pyridine-3-carboxamide]"
10,1.12 nM,"N-[5-[2-[4-(cyclopropylmethyl)piperazin-1-yl]pyrimidin-5-yl]-4-fluoro-2-[(3R)-3,4-dimethylpiperazin-1-yl]phenyl]-4-fluoro-2-(trifluoromethyl)benzamide [Example 560]"
11,1 nM,"C[C@@H]1CN(c2cc(F)c(C3=CCN(c4ncc(C#N)cn4)CC3)cc2NC(=O)c2c[nH]c(=O)cc2C(F)(F)F)C[C@H](C)N1C [Example 404, N-[5-[1-(5-cyanopyrimidin-2-yl)-3,6-dihydro-2H-pyridin-4-yl]-4-fluoro-2-[(3R,5S)-3,4,5-trimethylpiperazin-1-yl]phenyl]-6-oxo-4-(trifluoromethyl)-1H-pyridine-3-carboxamide]"
